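Briefly, cells in 96-well plates were exposed to five compound concentrations for 48 h, and endpoints were estimated by linear interpolation. GI50 = concentration required for 50% inhibition of growth. TGI denotes the concentration required for complete inhibition of growth.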 Some results are limits rather than exact numbers.

Test systems include NCI-H226 lung; HOP-92 NSCLC; BT-549 breast; NCI/ADR-RES ovarian; OVCAR-4 ovarian; HCT-116 colon; OVCAR-5 ovarian; RPMI-8226 leukemia; MDA-MB-435; OVCAR-8 ovarian.
Test in all cases: NCI-60 cell line screen, 48 h

Consider `COc1ccc(-c2nc3ccc(-c4nc5ccc(N6CCN(c7ccccc7)CC6)cc5[nH]4)cc3[nH]2)cc1OC`, for which the GI50 with NCI-H226 lung was 14.5 µM; with HOP-92 NSCLC it was 1.28 µM; in the test on BT-549 breast, 3.31 µM; in the test on NCI/ADR-RES ovarian, more than 100 µM; in the test with OVCAR-4 ovarian, 1.52 µM; with HCT-116 colon, 0.281 µM. The GI50 in the test with OVCAR-5 ovarian was 2.21 µM; in the test with RPMI-8226 leukemia, 0.19 µM; in the test with MDA-MB-435, 1.73 µM; with OVCAR-8 ovarian, 1.52 µM. The TGI in the test on NCI-H226 lung is 32.6 µM; with HOP-92 NSCLC, 4 µM; in the test with BT-549 breast it was 10.9 µM; with NCI/ADR-RES ovarian it was more than 100 µM; in the test with OVCAR-4 ovarian, 3.04 µM; in the test on HCT-116 colon it was 1.11 µM. Further, the TGI is 4.48 µM in the test on OVCAR-5 ovarian, 2.3 µM in the test with RPMI-8226 leukemia, 3.32 µM with MDA-MB-435 and 4.56 µM in the test with OVCAR-8 ovarian.

As for `CC[C@H]1[C@@H]2C=C[C@@H]3[C@H]4C/C=C\C(=O)NCCC[C@@H]5NC(=O)/C(=C(O)/C=C/[C@@H]4C[C@@H]3[C@H]2C[C@H]1C)C5=O`, the GI50 with NCI-H226 lung is 0.738 µM; in the test on HOP-92 NSCLC it was 1.41 µM; in the test with BT-549 breast, 1.29 µM; in the test on NCI/ADR-RES ovarian, 0.815 µM; in the test with OVCAR-4 ovarian, 0.664 µM; with HCT-116 colon, 1.48 µM. Further, the GI50 in the test with OVCAR-5 ovarian is 1.66 µM; in the test on RPMI-8226 leukemia it was 1.77 µM; in the test with MDA-MB-435, 0.982 µM; in the test with OVCAR-8 ovarian, 0.333 µM. Besides, the TGI with NCI-H226 lung was 2.56 µM; in the test with HOP-92 NSCLC it was 2.82 µM; in the test with BT-549 breast, 2.74 µM; with NCI/ADR-RES ovarian, 2.36 µM; with OVCAR-4 ovarian it was 2.16 µM; with HCT-116 colon, 3.03 µM. Moreover, the TGI in the test with OVCAR-5 ovarian turned out to be 3.5 µM; with RPMI-8226 leukemia it was 4.23 µM; with MDA-MB-435, 2.25 µM; with OVCAR-8 ovarian it was 1.37 µM.

As for `C[C@@H]1CC[C@@H]2[C@@H]1[C@H](OC(=O)/C=C/c1ccccc1)[C@]1(C3CCCCC3)C[C@@H](OC(=O)CO)[C@@]2(C)O1`, the GI50 with NCI-H226 lung was 2.06 µM; with HOP-92 NSCLC, 2.68 µM; in the test on BT-549 breast, 0.0337 µM; with NCI/ADR-RES ovarian, 0.515 µM; in the test with OVCAR-4 ovarian it was 3.92 µM; with HCT-116 colon it was 1.92 µM. For the same molecule, the GI50 is 1.93 µM in the test with OVCAR-5 ovarian, 2.99 µM in the test on RPMI-8226 leukemia, 2.99 µM in the test with MDA-MB-435 and 0.513 µM in the test on OVCAR-8 ovarian. In addition, the TGI was 5.56 µM with NCI-H226 lung; 9.17 µM in the test on HOP-92 NSCLC; 0.729 µM in the test with BT-549 breast; 5.2 µM in the test with NCI/ADR-RES ovarian; 16 µM in the test with OVCAR-4 ovarian; 4.13 µM in the test with HCT-116 colon. The TGI was 5.59 µM in the test with OVCAR-5 ovarian, 7.49 µM with RPMI-8226 leukemia, 11 µM in the test with MDA-MB-435 and 13 µM in the test on OVCAR-8 ovarian.

For the molecule `O=C(c1ccccc1)c1cc2ccccc2o1`, the GI50 in the test on NCI-H226 lung was more than 100 µM; in the test on HOP-92 NSCLC, 26.7 µM; with BT-549 breast it was 73 µM; in the test with NCI/ADR-RES ovarian, 77.4 µM; in the test on OVCAR-4 ovarian it was more than 100 µM; with HCT-116 colon, 62.7 µM. In addition, the GI50 in the test on OVCAR-5 ovarian was more than 100 µM; with RPMI-8226 leukemia, 91.8 µM; with MDA-MB-435 it was more than 100 µM; with OVCAR-8 ovarian, more than 100 µM. Moreover, the TGI in the test with NCI-H226 lung, in the test with HOP-92 NSCLC, in the test on BT-549 breast, in the test with NCI/ADR-RES ovarian, with OVCAR-4 ovarian and in the test on HCT-116 colon was more than 100 µM in each case. Besides, the TGI in the test on OVCAR-5 ovarian, in the test with RPMI-8226 leukemia, in the test with MDA-MB-435 and in the test on OVCAR-8 ovarian was more than 100 µM throughout.

Turning to `C=C(C)[C@@H]1CC[C@]2(C)[C@H](CC=C3[C@@H]4CC(C)(C)CC[C@]4(C(N)=O)CC[C@]32C)[C@@]1(C)CCC#N`, the GI50 is 2.94 µM in the test with NCI-H226 lung; 2.37 µM in the test with HOP-92 NSCLC; 2.09 µM in the test on BT-549 breast; 3.75 µM in the test with NCI/ADR-RES ovarian; 2.56 µM in the test with OVCAR-4 ovarian; 4.35 µM in the test on OVCAR-5 ovarian. The figures for the GI50 with RPMI-8226 leukemia, in the test on MDA-MB-435 and with OVCAR-8 ovarian were 1.94 µM, 3.21 µM and 5.24 µM, respectively. Further, the TGI with NCI-H226 lung was 9.41 µM; in the test on HOP-92 NSCLC it was 6.62 µM; in the test with BT-549 breast, 5.53 µM; in the test with NCI/ADR-RES ovarian, more than 100 µM; in the test with OVCAR-4 ovarian, more than 100 µM; in the test on OVCAR-5 ovarian, more than 100 µM. Besides, the TGI with RPMI-8226 leukemia was 5.54 µM; in the test on MDA-MB-435, 20.5 µM; with OVCAR-8 ovarian, more than 100 µM.

For the molecule `CC(C)Oc1ccc2cc(-c3nn(CC4CCNCC4)c4ncnc(N)c34)ccc2c1`, the GI50 in the test on NCI-H226 lung was 17.4 µM; in the test with HOP-92 NSCLC, 6.37 µM; with BT-549 breast, 9.6 µM; in the test with NCI/ADR-RES ovarian, 6.23 µM; with OVCAR-4 ovarian it was 5.24 µM; with HCT-116 colon it was 6.78 µM. For the same molecule, the figures for the GI50 in the test with OVCAR-5 ovarian, with RPMI-8226 leukemia and with MDA-MB-435 were 11.9 µM, 3.1 µM and 3.86 µM, respectively. Moreover, the TGI stood at 35.2 µM in the test on NCI-H226 lung; 20.8 µM in the test on HOP-92 NSCLC; 22 µM in the test with BT-549 breast; 19.6 µM in the test on NCI/ADR-RES ovarian; 19.5 µM in the test with OVCAR-4 ovarian; 19.8 µM in the test on HCT-116 colon. The TGI with OVCAR-5 ovarian was found to be 24.1 µM; in the test with RPMI-8226 leukemia, 12.9 µM; in the test on MDA-MB-435 it was 14.6 µM.
